1 compound from publication PMC7509988 (2018) can be followed below.

This assay deals with E2 aptamer (DNA, aptamer) AAGGGATGCCGTTTGGGCCCAAGTTCGGCATAGTG
The assay is described as follows: graphene field-effect transistor. The conditions noted are these: 0.05 × PBS; pH 7.4, 5% DMSO, no interference; 4.67 nM with pH variation 6.5-8.0.

Regarding `C[C@]12CC[C@@H]3c4ccc(O)cc4CC[C@H]3[C@@H]1CC[C@@H]2O`, the KD (usually the free concentration of one partner at which half of the binding sites on the other are occupied at equilibrium, for simple one-to-one binding) amounted to 4.21 nM.
